Assay results as given in patent US20090318468A1, “PYRAZOLE COMPOUNDS 436” (AstraZeneca AB, priority 2008, published 2009).

Assays:
Assay type in all cases: in vitro ADME
[1] = target: T1, human cytochrome P450 (CYP) 1A2 (Homo sapiens, UniProt P05177); experiment: Cytochrome P450 Inhibition Assay, CYP 1A2; conditions: test compound 0.1-10 μM, substrate CEC
T1 construct: made in house; host or cells: yeast (microsomal fraction)
T1 sequence (P05177 1-516): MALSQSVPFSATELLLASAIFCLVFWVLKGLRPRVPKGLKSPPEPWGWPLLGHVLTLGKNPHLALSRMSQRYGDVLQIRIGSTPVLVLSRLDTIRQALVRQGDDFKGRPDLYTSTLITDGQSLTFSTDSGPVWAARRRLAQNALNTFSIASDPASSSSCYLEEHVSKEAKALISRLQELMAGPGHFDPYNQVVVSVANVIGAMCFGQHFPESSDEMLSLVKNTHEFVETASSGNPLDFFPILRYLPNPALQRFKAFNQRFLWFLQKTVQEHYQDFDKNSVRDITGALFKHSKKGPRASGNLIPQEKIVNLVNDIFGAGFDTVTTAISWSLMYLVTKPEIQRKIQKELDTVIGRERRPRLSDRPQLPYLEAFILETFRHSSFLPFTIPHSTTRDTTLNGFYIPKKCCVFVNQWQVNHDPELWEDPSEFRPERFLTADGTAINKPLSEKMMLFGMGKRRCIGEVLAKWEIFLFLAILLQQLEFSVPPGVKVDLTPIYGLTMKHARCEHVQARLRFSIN
Experimental: (§1) Cytochrome P450 Inhibition Assay
The inhibitory potential (IC50) of test compounds against 5 human cytochrome P450 (CYP) isoforms (1A2, 2C9, 2C19, 3A4 and 2D6) was assessed using an automated fluorescent end point in vitro assay modified from Crespi (Crespi and Stresser, J Pharmacol Toxicol Methods 2000, 44: 325-331). Microsomal subcellular fractions prepared from Yeast cell lines expressing each human CYP isoform were used as an enzyme source in this assay. The activity of the 5 major human CYPs was determined from the biotransformation of a number of coumarin substrates to fluorescent metabolites, in the presence of NADPH. […] Comparison of the fluorescence observed in the presence of varying concentrations of test compound with that seen in its absence allowed an IC50 value to be calculated. […] The appropriate solvent controls and substrate blanks were included in each experiment to assess control activity and identify any inherent fluorescence due to the test compounds. […] The plates were read on a fluorimeter (Spectrafluor Plus) at the appropriate excitation and emission wavelengths (listed in Table 2) and the percent activity, corrected for control, was plotted against the test compound concentration.

[2] = target: T2, human cytochrome P450 (CYP) 2D6 (Homo sapiens, UniProt P10635); experiment: Cytochrome P450 Inhibition Assay, CYP 2D6; conditions: test compound 0.1-10 μM, substrate MAMC
T2 construct: made in house; host or cells: yeast (microsomal fraction)
T2 sequence (P10635 whole entry): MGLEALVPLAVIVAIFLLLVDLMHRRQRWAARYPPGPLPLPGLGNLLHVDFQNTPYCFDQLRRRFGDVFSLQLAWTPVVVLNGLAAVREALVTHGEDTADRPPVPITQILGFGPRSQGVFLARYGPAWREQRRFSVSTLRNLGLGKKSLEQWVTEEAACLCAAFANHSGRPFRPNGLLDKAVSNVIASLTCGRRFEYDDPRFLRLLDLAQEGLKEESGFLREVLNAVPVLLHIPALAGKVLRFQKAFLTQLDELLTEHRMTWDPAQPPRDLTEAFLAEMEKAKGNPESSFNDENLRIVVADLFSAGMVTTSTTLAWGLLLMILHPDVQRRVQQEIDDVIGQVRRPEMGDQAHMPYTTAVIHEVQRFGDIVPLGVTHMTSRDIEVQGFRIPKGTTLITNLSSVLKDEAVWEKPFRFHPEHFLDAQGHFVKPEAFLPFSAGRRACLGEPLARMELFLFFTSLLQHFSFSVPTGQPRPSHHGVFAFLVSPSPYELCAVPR
Experimental: as §1
The inhibitory potential (IC50) of test compounds against 5 human cytochrome P450 (CYP) isoforms (1A2, 2C9, 2C19, 3A4 and 2D6) was assessed using an automated fluorescent end point in vitro assay modified from Crespi (Crespi and Stresser, J Pharmacol Toxicol Methods 2000, 44: 325-331). Microsomal subcellular fractions prepared from Yeast cell lines expressing each human CYP isoform were used as an enzyme source in this assay. The activity of the 5 major human CYPs was determined from the biotransformation of a number of coumarin substrates to fluorescent metabolites, in the presence of NADPH. […] Stock solutions of each CYP, with its respective substrate, were prepared in phosphate buffer pH 7.4 (see Table 1) and 178 μl was added to the well of a black solid, flat bottom, 300 μl 96 well microtitre plate (Corning Costar). […] The appropriate solvent controls and substrate blanks were included in each experiment to assess control activity and identify any inherent fluorescence due to the test compounds. […] The plates were read on a fluorimeter (Spectrafluor Plus) at the appropriate excitation and emission wavelengths (listed in Table 2) and the percent activity, corrected for control, was plotted against the test compound concentration.

[3] = target: T3, human cytochrome P450 (CYP) 2C9 (Homo sapiens, UniProt P11712); experiment: Cytochrome P450 Inhibition Assay, CYP 2C9; conditions: test compound 0.1-10 μM, substrate MFC
T3 construct: made in house; host or cells: yeast (microsomal fraction)
T3 sequence (P11712 whole entry): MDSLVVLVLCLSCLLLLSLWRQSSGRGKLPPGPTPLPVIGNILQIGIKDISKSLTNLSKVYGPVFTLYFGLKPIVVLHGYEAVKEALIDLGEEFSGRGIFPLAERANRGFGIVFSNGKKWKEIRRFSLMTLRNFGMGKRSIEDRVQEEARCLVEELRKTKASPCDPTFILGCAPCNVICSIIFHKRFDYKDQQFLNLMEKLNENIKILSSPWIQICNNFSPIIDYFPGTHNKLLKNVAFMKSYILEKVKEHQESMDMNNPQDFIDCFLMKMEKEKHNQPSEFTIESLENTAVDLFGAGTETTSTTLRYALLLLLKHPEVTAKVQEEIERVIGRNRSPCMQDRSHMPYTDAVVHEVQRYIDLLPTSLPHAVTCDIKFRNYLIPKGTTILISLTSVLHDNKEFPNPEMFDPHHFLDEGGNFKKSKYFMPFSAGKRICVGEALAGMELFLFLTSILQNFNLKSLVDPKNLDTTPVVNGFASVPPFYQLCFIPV
Experimental: as §1
Microsomal subcellular fractions prepared from Yeast cell lines expressing each human CYP isoform were used as an enzyme source in this assay. The activity of the 5 major human CYPs was determined from the biotransformation of a number of coumarin substrates to fluorescent metabolites, in the presence of NADPH. […] Stock solutions of each CYP, with its respective substrate, were prepared in phosphate buffer pH 7.4 (see Table 1) and 178 μl was added to the well of a black solid, flat bottom, 300 μl 96 well microtitre plate (Corning Costar). […] After pre-incubating at 37° C. for 5 min the reactions were started with addition of NADPH (20 μl, concentration shown in Table 1). The final solvent content in each incubation was <=2% (1% from the test compound and a maximum of 1% from the substrate). The appropriate solvent controls and substrate blanks were included in each experiment to assess control activity and identify any inherent fluorescence due to the test compounds. In addition, known inhibitors of each CYP were included as positive controls (see Table 3 for inhibitor concentrations and expected IC50 ranges). […] The plates were read on a fluorimeter (Spectrafluor Plus) at the appropriate excitation and emission wavelengths (listed in Table 2) and the percent activity, corrected for control, was plotted against the test compound concentration.

SMILES: COc1cc(CCc2cc(NC(=O)c3ccc(N4CCN(C)[C@@H](C)C4)cc3)[nH]n2)cc(OC)c1 [Example 1a, (S)—N-(3-(3,5-Dimethoxyphenethyl)-1H-pyrazol-5-yl)-4-(3,4-dimethylpiperazin-1-yl)benzamide]
- IC50 [1]: > 10 µM
- IC50 [2]: > 10 µM
- IC50 [3]: 3.76 µM

SMILES: COc1cc(CCc2cc(NC(=O)c3ccc(N4CCN(C)[C@H](C)C4)cc3)[nH]n2)cc(OC)c1 [Example 1b, (R)—N-(3-(3,5-Dimethoxyphenethyl)-1H-pyrazol-5-yl)-4-(3,4-dimethylpiperazin-1-yl)benzamide]
- IC50 [1]: > 10 µM
- IC50 [2]: > 10 µM
- IC50 [3]: 9.12 µM
